# In publication PMC2621068 (Neuropeptides, 2008):
# What was measured:
# female Kuming mice = conditions: mouse, in vivo
# Kuming mice [1] = conditions: mouse, in vivo
# Kuming mice [2] = assay type: in vivo, mouse; conditions: n = 8
compound,measurement,setting,value
"CC(C(O)c1ccc(O)cc1)N1CCC(Cc2ccccc2)CC1 (centres unmarked) [ifenprodil, reference compound]","Paw withdrawal latency after administration, 30 min",female Kuming mice,11.1 ± 3.7 s
same,"Paw withdrawal latency after administration, 90 min",female Kuming mice,11.1 ± 4.6 s
same,"Paw withdrawal latency after administration, 150 min",female Kuming mice,11.2 ± 3.0 s
same,"Paw withdrawal latency after administration, 240 min",female Kuming mice,12.8 ± 3.0 s
same,Paw withdrawal latency before administration,female Kuming mice,10.8 ± 2.4 s
same,antinociception in the hot-plate test (in words),female Kuming mice,had no effect
same,Increase in paw width,Kuming mice [1],1.10 ± 0.05 mm
same,"Injected paw width, after formalin injection",Kuming mice [1],2.70 ± 0.04 mm
same,"Injected paw width, before formalin injection",Kuming mice [1],1.59 ± 0.04 mm
same,first phase response of the formalin test (in words),Kuming mice [2],without effect in both phases
same,second phase response of the formalin test (in words),Kuming mice [2],without effect in both phases
